In patent US20040175378A1, “Selected antibody compositions and methods for binding to aminophospholipids” (Board of Regents, The University of Texas System, priority 2002, published 2004):

Legend:
ABAE cells = test: PS exposure by 125I-annexin V binding; type: cell-based, bovine; details: 24 h
Experimental: (§1) All reagents were diluted in medium containing 10% serum and incubated with the cells at 37° C. for 24 h.
(§2) To study the effect of hypoxia, cells were seeded on 24 well plates and were incubated in a humidified normoxic atmosphere (21% O2, 5% CO2) for 48 h before being transferred to a humidified hypoxic atmosphere (1% O2, 5% CO2, 94% N2) in a sealed chamber (Billups Rothenberg Inc., Del Mar, Calif.). Cells were incubated in a hypoxic chamber for 24 h at 37° C. and were then returned to a normoxic environment for 4 h at 37° C. The cells were compared to a parallel culture from an identical passage, seeded on the same day and maintained entirely under normoxic conditions. In some studies, IL-1α (10 ng/ml) and TNFα (20 ng/ml) were added to the medium before transfer to the hypoxic chamber.
(§3) After treatment with the reagents described above, treated and control cells were incubated with 7.1 pmoles of ^125I-labeled annexin V (200 μl/well) in the binding buffer. After 2 h incubation at room temperature, cells were washed extensively and dissolved in 0.5 M of NaOH. The entire volume of 0.5 ml was transferred to plastic tubes and counted in a gamma counter. Non-specific binding was determined in the presence of 5 mM EDTA and was subtracted from experimental values. The results were expressed as net pmoles of cell-bound annexin V, normalized per 1×10^6 cells.
(§4) Maximal binding of annexin V was determined on cells simultaneously treated with actinomycin D and TNFα (50 ng/ml of each component). As has been previously reported, these agents cause apoptosis and PS exposure in 90-100% of endothelial cells (Lucas et al., 1998). Basal binding of ^125I-annexin V to untreated cells was determined in the presence of medium with 10% serum. The amount of ^125I-annexin V that bound to the untreated cultures was subtracted from that in the treated cultures. Exposure of PS was calculated according to the following formula: cell-bound annexin V (pmoles) under experimental conditions divided by maximal annexin V binding (pmoles), multiplied by 100. Each study was performed in duplicate and was performed at least three times. Mean values were calculated. The SE of the mean values from three separate experiments was less than 5%.

bEnd.3 cells = test: PS exposure by 125I-annexin V binding; type: cell-based, Mouse; details: bEnd.3, 24 h
Experimental: as §1, §2, §3, §4

HUVEC and HMVEC = test: Induction of PS exposure on endothelial cells, FACS of 3G4 binding; type: cell-based, Human; details: 10 nM, 24 hrs
Experimental: (§5) FIG. 24A and FIG. 24B. Induction of PS exposure on endothelial cells by docetaxel. Human umbilical vein endothelial cells (HUVEC) and human microvessel endothelial cells (HMVEC) were treated with 10 nM of docetaxel for 24 hrs. […] The cells were then washed twice, FITC labeled goat anti-mouse IgG was added and the cells incubated for a further 30 mins. on ice. The cells were then washed and analyzed by FACS using a FACSCalibur cytometer (Becton-Dickinson, San Jose, Calif.) with CellQuest acquisition software.
The induction of PS exposure on endothelial cells by subclinical concentrations of docetaxel was examined in vitro by FACS analysis. Human umbilical vein endothelial cells (HUVEC) and human microvessel endothelial cells (HMVEC) were treated with 10 nM of docetaxel for 24 hrs and examined by FACS. […] Docetaxel incubations for 48 and 72 hrs were also conducted.

[1] = system: 3LL, Colo26 and MDA-MB-435 cells; test: Induction of PS exposure on tumor cell lines, FACS of 3G4 binding; type: cell-based; details: 10 nM, 24 hrs, Colo26, MDA-MB-435
Experimental: as §5, with “25A, FIG. 25B” for “24A”, “25C.” for “24B.”, “tumor cell lines” for “endothelial cells”, “Mouse lewis lung carcinoma 3LL, mouse colon carcinoma Colo26” for “Human umbilical vein endothelial cells (HUVEC)”, “breast cancer MDA-MB-435” for “microvessel endothelial”, “cells” for “cells (HMVEC)”
The in vitro induction of PS exposure by subclinical concentrations of docetaxel was also examined by FACS analysis using a panel of tumor cell lines. Mouse lewis lung carcinoma 3LL, mouse colon carcinoma Colo26 and human breast cancer MDA-MB-435 cells were treated with 10 nM of docetaxel for 24 hrs and examined by FACS. […] Docetaxel incubations for 48 and 72 hrs were also conducted.

[2] = system: tumor vascular endothelium of MDA-MB-435 tumors; test: Localization of biotinylated ch3G4 in tumors; type: in vivo, mice; details: i.v., one hour
Experimental: Localization of ch3G4 was examined in MDA-MB-435 human breast cancer cells growing in mice. Mice were injected intravenously with biotinylated ch3G4 or control IgG of irrelevant specificity. One hour later, the mice were exsanguinated, and their tumors were removed and frozen sections were cut. Biotinylated reagents were first incubated with streptavidin-Cy3 conjugate, washed in PBS, then incubated with MECA 32 antibody followed by FITC-tagged secondary antibody. Single images, taken with appropriate filters for Cy3 (red) and FITC (green) fluorescence respectively, were captured by digital camera and transferred to a computer.

[3] = system: Vaccinia virus-infected U937 cells; type: cell-based; details: day 2 after infection, m.o.i. 2
[4] = system: orthotopic MDA-MB-435 breast cancer; test: 3G4 and ch3G4 tumor treatment; type: in vivo, mice; details: i.p. 800 μg day 15, 200 μg every two to three days, 400 μg day 35
Experimental: Tumors were also established using MD-MBA-435s cells and treated as described above. […] The treatment of large L540 tumors, MDA-MB-231 and MD-MBA-435s tumor cells for 60 days is shown in FIG. 8D, FIG. 8E and FIG. 8F. The antibodies caused tumor vascular injury, thrombosis and necrosis and retarded tumor growth, with no evidence of toxicity.
MD-MBA-435s lucerifase cells were obtained from Dr. Angels Sierra Jimenez, Barcelona, Spain and were grown in 10% DMEM. Mice were injected with tumor cells as described as above, and at 2 weeks post injection, the tumors were measured and the volume recorded. […] Treatment was initiated by IP injection (800 μg) at day 15 and continued with injections of 200 μg every two to three days until the final injection of 400 μg at day 35. Tumor volumes and mouse body weights were measured on injection days. Mice were sacrificed and perfused with saline for 12 minutes. The organs and tumor were removed, snap-frozen in liquid nitrogen and the tumor sectioned for immunohistochemistical analysis.

mCMV RVG102 = test: Survival of mCMV-infected mice; type: in vivo, Balb/C mice; details: 1 mg/mouse i.p. day 1, 0.5 mg/mouse every four days until day 26; past 90 days
[5] = Binding of chimeric 3G4 to phospholipid-coated ELISA plates
Text: FIG. 21. […] Phospholipids (PS, PI, PE, PC, SM, CL, PG and PA) were adsorbed to plastic of microtiter plates.

[6] = progressive disease before treatment; cited from earlier work
bEnd.3 endothelial cells = test: PS translocation and viability of bEnd.3 cells treated with H2O2; details: low levels of H2O2

Scatter factor: recombinant hepatocyte growth factor
^125I-Annexin V (% of Max binding) (ABAE cells; 40 ng/ml): 0%
^125I-Annexin V (% of Max binding) (bEnd.3 cells; 40 ng/ml): 0%

TNFα
^125I-Annexin V (% of Max binding) (ABAE cells; 20 ng/ml): 7.4%
^125I-Annexin V (% of Max binding) (bEnd.3 cells; 20 ng/ml): 13.7%

VEGF
^125I-Annexin V (% of Max binding) (ABAE cells; 20 ng/ml): 0%
^125I-Annexin V (% of Max binding) (bEnd.3 cells; 20 ng/ml): 0%

IL-8: interleukin-8
^125I-Annexin V (% of Max binding) (ABAE cells; 20 ng/ml): 0%
^125I-Annexin V (% of Max binding) (bEnd.3 cells; 20 ng/ml): 0%

CC(=O)O[C@@]12CO[C@@H]1C[C@H](O)[C@@]1(C)C(=O)[C@H](O)C3=C(C)[C@@H](OC(=O)[C@H](O)[C@@H](NC(=O)OC(C)(C)C)c4ccccc4)C[C@@](O)([C@@H](OC(=O)c4ccccc4)[C@H]21)C3(C)C [docetaxel]
3G4 binding as compared to untreated cells (HUVEC and HMVEC): significant increase in 3G4 binding
3G4 binding as compared with untreated cells [1]: significant increase in 3G4 binding

Interferon
^125I-Annexin V (% of Max binding) (ABAE cells; 40 ng/ml): 8.6%
^125I-Annexin V (% of Max binding) (bEnd.3 cells; 40 ng/ml): 2.8%

ch3G4: human-mouse chimeric 3G4: murine variable regions on human γ1 and κ constant regions, expressed in CHO cells
localization to tumor vascular endothelium [2]: binds to the tumor vascular endothelium
binding to virus-infected vs uninfected cells (FACS) [3]: significant shift
tumor growth as opposed to control [4]: effectively retarded tumor growth
survival (mCMV RVG102): 80%
binding to phospholipid-coated ELISA plates [5]: bound at least as did well as the murine 3G4

IL-10: interleukin-10
^125I-Annexin V (% of Max binding) (ABAE cells; 20 ng/ml): 0%
^125I-Annexin V (% of Max binding) (bEnd.3 cells; 20 ng/ml): 0%

NC(=O)c1nnn(Cc2cc(Cl)c(C(=O)c3ccc(Cl)cc3)c(Cl)c2)c1N [CAI, carboxyamidotriazole]
cancer patients with disease stabilization [6]: 49%

Thrombin
^125I-Annexin V (% of Max binding) (ABAE cells; 50 nM): 8.8%
^125I-Annexin V (% of Max binding) (bEnd.3 cells; 50 nM): 17.4%

OO [Hydrogen peroxide, hydrogen peroxide]
cell viability (bEnd.3 endothelial cells): 95%

TGF β1: growth factor
^125I-Annexin V (% of Max binding) (ABAE cells; 20 ng/ml): 0%
^125I-Annexin V (% of Max binding) (bEnd.3 cells; 20 ng/ml): 0%

IL-6: interleukin-6
^125I-Annexin V (% of Max binding) (ABAE cells; 20 ng/ml): 0%
^125I-Annexin V (% of Max binding) (bEnd.3 cells; 20 ng/ml): 0%

FGF-2: human fibroblast growth factor-2
^125I-Annexin V (% of Max binding) (ABAE cells; 20 ng/ml): 0%
^125I-Annexin V (% of Max binding) (bEnd.3 cells; 20 ng/ml): 0%

B1: IL-1α: recombinant murine interleukin-1 alpha (protein, UniProt P01582 115-270, looked up)
Interleukin-1 alpha: SAPYTYQSDLRYKLMKLVRQKFVMNDSLNQTIYQDVDKHYLSTTWLNDLQQEVKFDMYAYSSGGDDSKYPVTLKISDSQLFVSAQGEDQPVLLKELPETPKLITGSETDLIFFWKSINSKNYFTSAAYPELFIATKEQSRVHLARGLPSMTDFQIS
^125I-Annexin V (% of Max binding) (ABAE cells; 10 ng/ml): 6.4%
^125I-Annexin V (% of Max binding) (bEnd.3 cells; 10 ng/ml): 7.5%

B2: IL-1β: recombinant murine interleukin-1 beta (protein, UniProt P10749 118-269, looked up)
Interleukin-1 beta: VPIRQLHYRLRDEQQKSLVLSDPYELKALHLNGQNINQQVIFSMSFVQGEPSNDKIPVALGLKGKNLYLSCVMKDGTPTLQLESVDPKQYPKKKMEKRFVFNKIEVKSKVEFESAEFPNWYISTSQAEHKPVFLGNNSGQDIIDFTMESVSS
^125I-Annexin V (% of Max binding) (ABAE cells; 10 ng/ml): 5.8%
^125I-Annexin V (% of Max binding) (bEnd.3 cells; 10 ng/ml): 5.5%
